Results published in ChEMBL document CHEMBL1201862, “PubChem BioAssay data set” (2004).
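Values below derive from 48-hour exposures of cells grown in 96-well plates, with endpoints linearly interpolated between the two concentrations bracketing the appropriate inhibition level. GI50: concentration for 50% inhibition of growth.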 Activity calls are given as the source filed them. No stated cut-off is given here; in the data, active = GI50 up to about 1.1 µM and inactive = higher.

Legend:
Assay in all cases: NCI anticancer screen, dose series, 48 h
SK-MEL-5 = tested on: SK-MEL-5
Malme-3M = tested on: Malme-3M
UO-31 = tested on: UO-31
EKVX = tested on: EKVX
UACC-257 = tested on: UACC-257
MOLT-4 = tested on: MOLT-4
M14 = tested on: M14
TK-10 = tested on: TK-10
OVCAR-4 = tested on: OVCAR-4
NCI-H226 = tested on: NCI-H226
CCRF-CEM = tested on: CCRF-CEM
LOX IMVI = tested on: LOX IMVI
SK-MEL-2 = tested on: SK-MEL-2
RPMI-8226 = tested on: RPMI-8226
MDA-MB-435 = tested on: MDA-MB-435
HCT-116 = tested on: HCT-116
IGROV-1 = tested on: IGROV-1
HOP-62 = tested on: HOP-62
Hs-578T = tested on: Hs-578T
A498 = tested on: A498

| SMILES | GI50 (SK-MEL-5) | GI50 (Malme-3M) | GI50 (UO-31) | GI50 (EKVX) | GI50 (UACC-257) | GI50 (MOLT-4) | GI50 (M14) | GI50 (TK-10) | GI50 (OVCAR-4) | GI50 (NCI-H226) | GI50 (CCRF-CEM) | GI50 (LOX IMVI) | GI50 (SK-MEL-2) | GI50 (RPMI-8226) | GI50 (MDA-MB-435) | GI50 (HCT-116) | GI50 (IGROV-1) | GI50 (HOP-62) | GI50 (Hs-578T) | GI50 (A498) |
| --- | --- | --- | --- | --- | --- | --- | --- | --- | --- | --- | --- | --- | --- | --- | --- | --- | --- | --- | --- | --- |
| C#Cc1cc(-c2nc3ccccc3s2)ccc1N | 26.6 µM (inactive) | 24.4 µM (inactive) | 14.2 µM (inactive) | 19.1 µM (inactive) | 12.6 µM (inactive) | 22.6 µM (inactive) | 17.6 µM (inactive) | 15.1 µM (inactive) | 17.6 µM (inactive) | 12.4 µM (inactive) | 23.3 µM (inactive) | 13.7 µM (inactive) | 16.7 µM (inactive) | 25.4 µM (inactive) | 19.5 µM (inactive) | 16.6 µM (inactive) | 0.615 µM (active) | 37.3 µM (inactive) |  |  |
| CN(C(=O)C1(C(=O)C=[N+]=[N-])CC1)c1ccccc1 | > 100 µM (inactive) | > 100 µM (inactive) | > 100 µM (inactive) | > 100 µM (inactive) | > 100 µM (inactive) | > 100 µM (inactive) | > 100 µM (inactive) | > 100 µM (inactive) |  | > 100 µM (inactive) | > 100 µM (inactive) | > 100 µM (inactive) | > 100 µM (inactive) | > 100 µM (inactive) | > 100 µM (inactive) | > 100 µM (inactive) | > 100 µM (inactive) | > 100 µM (inactive) | > 100 µM (inactive) |  |
| O=C(Nc1ccc(Sc2ccc(/N=N/c3c(O)c(S(=O)(=O)O)cc4cc(S(=O)(=O)O)ccc34)cc2)cc1)c1ccc(/N=N/c2c(O)c(S(=O)(=O)O)cc3cc(S(=O)(=O)O)ccc23)cc1 | 13.5 µM (inactive) | 15.5 µM (inactive) | 35.6 µM (inactive) | 17.7 µM (inactive) | 13.8 µM (inactive) | 9.25 µM (inactive) | 24.9 µM (inactive) | 27.5 µM (inactive) | 24.1 µM (inactive) | 39.3 µM (inactive) | 21.2 µM (inactive) | 18.5 µM (inactive) | 18.8 µM (inactive) | 5.53 µM (inactive) |  | 29.8 µM (inactive) | 35.6 µM (inactive) | 88.1 µM (inactive) |  | 45.2 µM (inactive) |
| COc1cccc2c1OC1c3ccccc3OCC1(O)C2 (stereo not drawn) | > 100 µM (inactive) | > 100 µM (inactive) | > 100 µM (inactive) | > 100 µM (inactive) | > 100 µM (inactive) | > 100 µM (inactive) | > 100 µM (inactive) | > 100 µM (inactive) | > 100 µM (inactive) | > 100 µM (inactive) | > 100 µM (inactive) | > 100 µM (inactive) | > 100 µM (inactive) | > 100 µM (inactive) | > 100 µM (inactive) | > 100 µM (inactive) | > 100 µM (inactive) | > 100 µM (inactive) |  | > 100 µM (inactive) |
| CC(=O)/C(=C/NC(=S)N/N=C1\C(=O)Nc2ccccc21)C(=O)Nc1ccccc1C | 65.3 µM (inactive) |  | 44.3 µM (inactive) | 70.6 µM (inactive) | > 100 µM (inactive) | > 100 µM (inactive) | > 100 µM (inactive) | > 100 µM (inactive) | > 100 µM (inactive) | > 100 µM (inactive) |  | 63.8 µM (inactive) | > 100 µM (inactive) |  | > 100 µM (inactive) | 95.3 µM (inactive) | 95.3 µM (inactive) | > 100 µM (inactive) |  | 57.7 µM (inactive) |
| CCOC(=O)c1csc(NC(=O)CCN2CCCC2)n1 | > 100 µM (inactive) |  | > 100 µM (inactive) | > 100 µM (inactive) | > 100 µM (inactive) | > 100 µM (inactive) | > 100 µM (inactive) | > 100 µM (inactive) | > 100 µM (inactive) | > 100 µM (inactive) | > 100 µM (inactive) | > 100 µM (inactive) | > 100 µM (inactive) | 86.7 µM (inactive) | > 100 µM (inactive) |  | > 100 µM (inactive) | > 100 µM (inactive) |  |  |
| CCOc1ncn(-c2ccc(NC(=S)Nc3cnccn3)cc2)n1 |  | > 10 µM (inactive) | > 10 µM (inactive) | > 10 µM (inactive) | > 10 µM (inactive) | > 10 µM (inactive) | > 10 µM (inactive) | > 10 µM (inactive) | > 10 µM (inactive) | > 10 µM (inactive) | > 10 µM (inactive) |  | > 10 µM (inactive) |  | > 10 µM (inactive) |  | > 10 µM (inactive) |  | > 10 µM (inactive) |  |
| Oc1ccc(C2Oc3cc(O)cc4c3C2c2cc(O)cc3c2C(c2cc(O)cc5c2C4C(c2ccc(O)cc2)O5)C(c2ccc(O)cc2)O3)cc1 (stereo not drawn) | 10.9 µM (inactive) | 5.7 µM (inactive) | 8.24 µM (inactive) | > 25 µM (inactive) | 10.5 µM (inactive) | 6.89 µM (inactive) | > 25 µM (inactive) | > 25 µM (inactive) | 4.4 µM (inactive) | 6.19 µM (inactive) | 5.78 µM (inactive) | 7.05 µM (inactive) | 5.51 µM (inactive) | 7.45 µM (inactive) |  | 7.48 µM (inactive) |  | 16.5 µM (inactive) |  | > 25 µM (inactive) |
| CN1B(c2ccccc2)N(C)C(=O)N(C)C1=O | > 100 µM (inactive) | > 100 µM (inactive) | 20.5 µM (inactive) | > 100 µM (inactive) | > 100 µM (inactive) |  | > 100 µM (inactive) | > 100 µM (inactive) |  | > 100 µM (inactive) | > 100 µM (inactive) |  | > 100 µM (inactive) | > 100 µM (inactive) | > 100 µM (inactive) | > 100 µM (inactive) | > 100 µM (inactive) |  | 81.3 µM (inactive) |  |
| Cc1ccc(OCC2OC(n3cnc4nc(Nc5ccc(Cl)c(Cl)c5)nc(Cl)c43)CC2Oc2ccc(C)cc2)cc1 (stereo not drawn) | > 100 µM (inactive) | > 100 µM (inactive) | > 100 µM (inactive) | 53.7 µM (inactive) | > 100 µM (inactive) | > 100 µM (inactive) | > 100 µM (inactive) | > 100 µM (inactive) | > 100 µM (inactive) | 46.9 µM (inactive) | > 100 µM (inactive) |  | > 100 µM (inactive) | > 100 µM (inactive) | > 100 µM (inactive) | > 100 µM (inactive) | 0.855 µM (active) | > 100 µM (inactive) | > 100 µM (inactive) |  |
| COC(=O)CC1(O)C(=O)OCc2c1cc1n(c2=O)Cc2c-1nc1ccccc1c2OC (stereo not drawn) | 0.358 µM (active) | 3.3 µM (inactive) | 1.04 µM (active) | 11.1 µM (inactive) | 5.38 µM (inactive) | 0.017 µM (active) | 0.188 µM (active) | > 43.6 µM (inactive) | 4.82 µM (inactive) | 0.115 µM (active) | < 0.0171 µM (active) | 0.0993 µM (active) | 16.1 µM (inactive) | 0.582 µM (active) |  | 0.388 µM (active) | 2.94 µM (inactive) | 0.0461 µM (active) |  | 0.724 µM (active) |
| Cc1cc(N(CCC#N)CCC#N)ccc1/C=C1N=C(/C=C\c2ccccc2)OC\1=O | > 100 µM (inactive) | > 100 µM (inactive) | > 100 µM (inactive) | > 100 µM (inactive) | > 100 µM (inactive) | > 100 µM (inactive) | > 100 µM (inactive) | > 100 µM (inactive) | > 100 µM (inactive) | > 100 µM (inactive) | > 100 µM (inactive) | > 100 µM (inactive) | > 100 µM (inactive) | > 100 µM (inactive) |  | > 100 µM (inactive) | > 100 µM (inactive) | > 100 µM (inactive) |  | > 100 µM (inactive) |
| CCOC(=O)C1=c2[nH]c3cccc4cccc(c43)n2C(=O)CC1 | 65.3 µM (inactive) |  | 38.6 µM (inactive) | > 100 µM (inactive) | > 100 µM (inactive) | > 100 µM (inactive) | > 100 µM (inactive) | > 100 µM (inactive) | > 100 µM (inactive) |  | 24.3 µM (inactive) | 25.4 µM (inactive) | > 100 µM (inactive) | > 100 µM (inactive) | > 100 µM (inactive) | 45.6 µM (inactive) | 49.4 µM (inactive) | > 100 µM (inactive) |  | > 100 µM (inactive) |
| CC1=NN(c2nc(N)nc(C(C)Sc3cc(Cl)c(C)cc3S(N)(=O)=O)n2)C(C)(C)C1 (stereo not drawn) | > 10 µM (inactive) | > 10 µM (inactive) | > 10 µM (inactive) | > 10 µM (inactive) | > 10 µM (inactive) | > 10 µM (inactive) | > 10 µM (inactive) | > 10 µM (inactive) | > 10 µM (inactive) | > 10 µM (inactive) | > 10 µM (inactive) | > 10 µM (inactive) | > 10 µM (inactive) | > 10 µM (inactive) |  | > 10 µM (inactive) | > 10 µM (inactive) | > 10 µM (inactive) | > 10 µM (inactive) | > 10 µM (inactive) |
| O=C(N/C(=C\c1cc(Cl)ccc1Cl)c1nc2c(O)nc(S)nc2[nH]1)c1ccccc1 | 47 µM (inactive) | > 90.2 µM (inactive) | 23.6 µM (inactive) | 37.8 µM (inactive) |  | 16.1 µM (inactive) | 22.9 µM (inactive) | > 75.3 µM (inactive) | 39.9 µM (inactive) | > 100 µM (inactive) | 13.4 µM (inactive) | 22.1 µM (inactive) | 46.1 µM (inactive) | 12.6 µM (inactive) |  | 7.91 µM (inactive) | > 42.4 µM (inactive) | > 100 µM (inactive) |  | > 100 µM (inactive) |
| O/N=N\c1nc(-c2cccnc2)nc2ccccc12 | > 100 µM (inactive) |  | 17.5 µM (inactive) | > 100 µM (inactive) | > 100 µM (inactive) | > 100 µM (inactive) | > 100 µM (inactive) | > 100 µM (inactive) | > 100 µM (inactive) | > 100 µM (inactive) | > 100 µM (inactive) |  |  |  |  | > 100 µM (inactive) | > 100 µM (inactive) | > 100 µM (inactive) | > 100 µM (inactive) | > 100 µM (inactive) |
